{"source": "paper PMC7056649", "about": "(Heliyon, 2020)", "key": {"[1]": {"tested_on": "membrane-bound α-glucosidases on differentiated Caco-2 cells", "assay": "Membrane bound α-glucosidase inhibitory activity in differentiated Caco-2 cells", "assay_type": "cell-based, human", "settings": "25 mM maltose, 0.1-100 μg/ml, 4 h; comparison in words"}, "Caco-2 cells": {"tested_on": "Caco-2 cells", "settings": "ref Ahn et al., 2017, Mei et al., 2012; cited from earlier work"}, "[2]": {"biological_target": "T1, porcine pancreatic α-amylase (Sus scrofa, UniProt P00690)", "T1 sequence (P00690 16-511)": "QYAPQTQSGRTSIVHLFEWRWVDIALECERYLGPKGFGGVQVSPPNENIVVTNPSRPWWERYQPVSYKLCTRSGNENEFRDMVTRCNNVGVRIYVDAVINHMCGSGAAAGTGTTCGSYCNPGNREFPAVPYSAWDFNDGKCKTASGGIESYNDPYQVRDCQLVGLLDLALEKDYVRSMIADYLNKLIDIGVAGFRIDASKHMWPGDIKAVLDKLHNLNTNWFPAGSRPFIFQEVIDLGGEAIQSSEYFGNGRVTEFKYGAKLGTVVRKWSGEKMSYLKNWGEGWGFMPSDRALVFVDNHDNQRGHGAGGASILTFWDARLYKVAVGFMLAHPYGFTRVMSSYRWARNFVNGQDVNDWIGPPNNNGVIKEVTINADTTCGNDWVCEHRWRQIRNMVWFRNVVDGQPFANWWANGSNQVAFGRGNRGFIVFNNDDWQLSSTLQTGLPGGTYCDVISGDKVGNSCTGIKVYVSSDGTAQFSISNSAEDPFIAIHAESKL", "assay": "α-Amylase inhibitory activity", "assay_type": "biochemical", "settings": "up to 600 μg/mL"}, "[3]": {"biological_target": "Saccharomyces cerevisiae α-glucosidase (Saccharomyces cerevisiae, UniProt P53341)", "sequence (P53341 whole entry)": "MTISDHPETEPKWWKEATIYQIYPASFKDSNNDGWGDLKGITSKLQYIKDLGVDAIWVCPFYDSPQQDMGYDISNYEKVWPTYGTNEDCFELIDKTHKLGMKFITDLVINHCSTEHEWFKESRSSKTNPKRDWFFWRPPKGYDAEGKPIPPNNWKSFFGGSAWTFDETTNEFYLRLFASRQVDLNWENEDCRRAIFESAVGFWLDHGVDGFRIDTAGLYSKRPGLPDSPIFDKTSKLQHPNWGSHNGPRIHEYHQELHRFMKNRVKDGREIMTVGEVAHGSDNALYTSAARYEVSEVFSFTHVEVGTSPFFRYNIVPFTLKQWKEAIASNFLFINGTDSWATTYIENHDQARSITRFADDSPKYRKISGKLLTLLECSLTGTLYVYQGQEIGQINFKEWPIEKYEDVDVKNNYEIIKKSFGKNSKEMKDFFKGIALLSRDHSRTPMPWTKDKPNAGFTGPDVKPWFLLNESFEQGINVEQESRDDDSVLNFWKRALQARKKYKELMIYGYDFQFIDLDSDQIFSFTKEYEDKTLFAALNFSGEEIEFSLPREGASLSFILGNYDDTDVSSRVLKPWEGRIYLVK", "assay": "α-Glucosidase inhibitory activity and kinetic analysis", "assay_type": "biochemical", "settings": "for Ki: yeast α-glucosidase hydrolysis of PNPG; for Mode of Inhibition: PNPG substrate, determined by Lineweaver-Burk plots"}}, "data": [{"smiles": "Oc1cc(O)cc(/C=C/c2ccc(O)cc2O)c1", "note": "[Oxyresveratrol, trans-3,5,2′,4′-tetrahydroxystilbene]", "values": [{"measurement": "inhibition of maltose hydrolysis in differentiated Caco-2 cells", "setting": "[1]", "value": "lesser potency compared to acarbose"}, {"measurement": "re-export rate from Caco-2 cells", "setting": "Caco-2 cells", "value": "high"}, {"measurement": "inhibition of α-amylase", "setting": "[2]", "value": "no detectable inhibition"}, {"measurement": "IC50", "setting": "[3]; IC50, substrate PNPG", "value": 203, "unit": "µM"}, {"measurement": "Ki", "setting": "[3]; Dixon plots, value in brackets", "value": 223, "unit": "µM"}, {"measurement": "Ki", "setting": "[3]; determined by Dixon plots", "value": 223, "unit": "µM"}, {"measurement": "Mode of Inhibition", "setting": "[3]", "value": "Non-competitive"}, {"measurement": "Mode of Inhibition", "setting": "[3]; listed as oxyresveratrol", "value": "non-competitively"}]}, {"smiles": "C[C@H]1O[C@H](O[C@H]2[C@H](O)[C@@H](O)[C@@H](O[C@H]3[C@H](O)[C@@H](O)C(O)O[C@@H]3CO)O[C@@H]2CO)[C@H](O)[C@@H](O)[C@@H]1N[C@H]1C=C(CO)[C@@H](O)[C@H](O)[C@H]1O", "note": "(stereo partly drawn) [Acarbose, acarbose, reference compound]", "values": [{"measurement": "inhibition of maltose hydrolysis in differentiated Caco-2 cells", "setting": "[1]", "value": "far more susceptible to acarbose"}]}]}
